Assay results as given in ChEMBL document CHEMBL1201862, “PubChem BioAssay data set” (2004).
Calls of active or inactive are those of the source.

Assays:
[1] = biological target: T1, 1-phosphatidylinositol 4,5-bisphosphate phosphodiesterase gamma-1 (Homo sapiens, UniProt P19174); experiment: Counterscreen for inhibitors of phospholipase C isozymes (PLC-B3): Fluorescence-based biochemical high throughput dose response assay to identify inhibitors of phospholipase C isozymes (PLC-gamma1).
T1 sequence (P19174 whole entry): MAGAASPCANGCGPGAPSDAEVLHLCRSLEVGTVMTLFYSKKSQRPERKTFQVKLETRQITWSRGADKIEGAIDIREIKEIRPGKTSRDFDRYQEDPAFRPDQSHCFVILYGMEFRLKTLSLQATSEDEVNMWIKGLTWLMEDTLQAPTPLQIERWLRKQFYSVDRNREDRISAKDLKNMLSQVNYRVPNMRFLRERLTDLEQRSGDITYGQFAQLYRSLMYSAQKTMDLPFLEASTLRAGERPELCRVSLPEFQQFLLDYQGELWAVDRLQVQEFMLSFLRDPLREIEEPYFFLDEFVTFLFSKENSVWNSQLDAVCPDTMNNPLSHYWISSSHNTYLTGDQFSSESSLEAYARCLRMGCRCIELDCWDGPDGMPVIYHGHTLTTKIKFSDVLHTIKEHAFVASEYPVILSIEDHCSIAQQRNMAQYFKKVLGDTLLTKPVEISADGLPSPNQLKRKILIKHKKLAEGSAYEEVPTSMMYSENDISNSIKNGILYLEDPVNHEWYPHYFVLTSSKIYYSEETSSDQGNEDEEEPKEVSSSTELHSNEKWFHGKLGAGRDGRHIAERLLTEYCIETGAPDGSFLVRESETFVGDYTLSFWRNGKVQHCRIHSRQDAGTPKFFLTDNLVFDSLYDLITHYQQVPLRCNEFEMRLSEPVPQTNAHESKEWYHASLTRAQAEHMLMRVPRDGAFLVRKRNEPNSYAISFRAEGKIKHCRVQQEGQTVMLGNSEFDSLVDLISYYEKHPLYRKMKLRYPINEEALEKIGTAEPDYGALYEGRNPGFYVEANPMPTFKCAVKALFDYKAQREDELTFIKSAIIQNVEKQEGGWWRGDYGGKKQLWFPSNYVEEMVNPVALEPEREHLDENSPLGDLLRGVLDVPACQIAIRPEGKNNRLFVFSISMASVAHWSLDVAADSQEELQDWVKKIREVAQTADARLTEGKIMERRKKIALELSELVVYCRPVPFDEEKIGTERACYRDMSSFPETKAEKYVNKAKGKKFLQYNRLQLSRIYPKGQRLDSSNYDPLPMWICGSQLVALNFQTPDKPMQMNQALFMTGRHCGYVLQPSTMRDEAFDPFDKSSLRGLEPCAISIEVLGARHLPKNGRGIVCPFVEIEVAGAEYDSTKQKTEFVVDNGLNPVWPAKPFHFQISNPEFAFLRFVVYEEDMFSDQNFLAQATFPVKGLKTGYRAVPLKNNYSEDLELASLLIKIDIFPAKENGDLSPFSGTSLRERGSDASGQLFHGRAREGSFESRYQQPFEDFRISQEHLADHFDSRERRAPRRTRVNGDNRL

[2] = biological target: T2, 1-phosphatidylinositol 4,5-bisphosphate phosphodiesterase beta-3 (Homo sapiens, UniProt Q01970); experiment: Fluorescence-based biochemical high throughput dose response assay to identify inhibitors of phospholipase C isozymes (PLC-B3).
T2 sequence (Q01970 whole entry): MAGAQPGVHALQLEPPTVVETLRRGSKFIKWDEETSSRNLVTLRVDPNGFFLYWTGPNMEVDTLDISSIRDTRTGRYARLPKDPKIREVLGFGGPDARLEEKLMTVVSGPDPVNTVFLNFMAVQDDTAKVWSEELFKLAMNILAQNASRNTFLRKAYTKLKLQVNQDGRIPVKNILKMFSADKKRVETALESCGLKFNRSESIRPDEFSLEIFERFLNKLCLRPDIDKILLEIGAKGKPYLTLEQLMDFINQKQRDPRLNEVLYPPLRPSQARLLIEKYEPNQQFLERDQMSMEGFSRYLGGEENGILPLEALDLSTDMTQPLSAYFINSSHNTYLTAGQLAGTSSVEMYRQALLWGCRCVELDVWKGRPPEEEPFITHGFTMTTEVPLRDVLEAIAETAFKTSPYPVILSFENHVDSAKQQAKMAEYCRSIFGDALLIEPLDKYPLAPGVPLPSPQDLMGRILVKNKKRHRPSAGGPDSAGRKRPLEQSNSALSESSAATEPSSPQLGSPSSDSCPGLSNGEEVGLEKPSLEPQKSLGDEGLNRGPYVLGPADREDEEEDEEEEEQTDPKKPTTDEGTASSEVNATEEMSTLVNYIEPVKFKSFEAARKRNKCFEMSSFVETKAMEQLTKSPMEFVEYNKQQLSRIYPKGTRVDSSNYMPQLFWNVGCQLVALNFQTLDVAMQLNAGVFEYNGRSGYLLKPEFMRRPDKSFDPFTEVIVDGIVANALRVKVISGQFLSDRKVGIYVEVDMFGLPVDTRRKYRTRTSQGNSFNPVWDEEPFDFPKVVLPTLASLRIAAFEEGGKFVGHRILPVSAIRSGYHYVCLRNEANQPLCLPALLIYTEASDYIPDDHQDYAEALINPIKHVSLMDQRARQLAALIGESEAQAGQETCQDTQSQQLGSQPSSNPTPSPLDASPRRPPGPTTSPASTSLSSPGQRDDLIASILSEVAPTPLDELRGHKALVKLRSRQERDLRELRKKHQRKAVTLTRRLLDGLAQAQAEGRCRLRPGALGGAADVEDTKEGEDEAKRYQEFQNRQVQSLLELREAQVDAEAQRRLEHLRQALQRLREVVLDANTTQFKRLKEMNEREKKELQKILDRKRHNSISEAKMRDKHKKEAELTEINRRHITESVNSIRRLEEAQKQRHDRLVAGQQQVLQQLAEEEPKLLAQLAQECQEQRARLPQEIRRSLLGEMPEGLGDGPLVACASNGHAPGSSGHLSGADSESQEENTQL

Compound | IC50 [1] | IC50 [2]
O=C1NC(=S)S/C1=C\C=C\c1ccc([N+](=O)[O-])o1 | > 122 µM (inactive) | > 122 µM (inactive)
O=C(NN1C(=O)CSC1=S)C(=O)NN1C(=O)CSC1=S | 4.36 µM (active) | > 122 µM (inactive)
